Assay results: US20050036977A1, “Taste-masked resinate and preparation thereof” (priority 2003, published 2005)
Like-named read-outs stand apart in the source and are kept apart here.

Settings: initial risperidone 15 mg/mL, control value = solubility of risperidone
Procedure: The resin and risperidone were added to either water, citrate-phosphate buffer at pH 5.93 or a 1.7% gelatin solution (Table 1a). The initial concentration of risperidone in the slurries was 15 mg/mL. The control consisted of risperidone in each of the three aqueous media.
Each slurry was placed into centrifuge tubes, capped and mixed with a Burrell Wrist action shaker model 75 for 24 hours. After 24 hours, the slurry was centrifuged at a relative centrifugal force of 38,724 g for 18 minutes. The supernatant was collected, filtered through a 0.45 μl nylon filter and assayed for risperidone by an isocratic HPLC method. The concentration of drug present in the supernatant represented the amount of unbound or “free” risperidone.

Cc1nc2n(c(=O)c1CCN1CCC(c3noc4cc(F)ccc34)CC1)CCCC2 [Risperidone (Control), risperidone]
Concentration of Risperidone in Supernatant after 24 Hours Mixing (1.7% Gelatin): 1062.1 µg/mL
Concentration of Risperidone in Supernatant after 24 Hours Mixing (Citrate-Phosphate Buffer (pH 5.93)): 4603.6 µg/mL
Concentration of Risperidone in Supernatant after 24 Hours Mixing (Purified Water): 85.82 µg/mL
